Test results taken from patent US20120028897A1, “METHODS AND COMPOSITIONS FOR THE TREATMENT OF FLUID RETENTION DISORDERS” (priority 2008, published 2012).
Like-named read-outs stand apart in the source and are kept apart here. Bridges are numbered along the chain shown (N, C = ends). Where no end group is shown, it is not given here.

B1: Human UgnB (B isoform of human uroguanylin) (peptide)
peptide: NDDCELCVNVACTGCL
modifications: disulfide 4-12, 7-15

Columns and labels:
[1] = 37° C., cited from earlier work
[2] = biological target: guanylate cyclase C (GC-C) receptor (UniProt P25092 24-1073, limits assumed); assay: cell-based or functional assay
Sequence of guanylate cyclase C (GC-C) receptor (P25092 24-1073 limits assumed): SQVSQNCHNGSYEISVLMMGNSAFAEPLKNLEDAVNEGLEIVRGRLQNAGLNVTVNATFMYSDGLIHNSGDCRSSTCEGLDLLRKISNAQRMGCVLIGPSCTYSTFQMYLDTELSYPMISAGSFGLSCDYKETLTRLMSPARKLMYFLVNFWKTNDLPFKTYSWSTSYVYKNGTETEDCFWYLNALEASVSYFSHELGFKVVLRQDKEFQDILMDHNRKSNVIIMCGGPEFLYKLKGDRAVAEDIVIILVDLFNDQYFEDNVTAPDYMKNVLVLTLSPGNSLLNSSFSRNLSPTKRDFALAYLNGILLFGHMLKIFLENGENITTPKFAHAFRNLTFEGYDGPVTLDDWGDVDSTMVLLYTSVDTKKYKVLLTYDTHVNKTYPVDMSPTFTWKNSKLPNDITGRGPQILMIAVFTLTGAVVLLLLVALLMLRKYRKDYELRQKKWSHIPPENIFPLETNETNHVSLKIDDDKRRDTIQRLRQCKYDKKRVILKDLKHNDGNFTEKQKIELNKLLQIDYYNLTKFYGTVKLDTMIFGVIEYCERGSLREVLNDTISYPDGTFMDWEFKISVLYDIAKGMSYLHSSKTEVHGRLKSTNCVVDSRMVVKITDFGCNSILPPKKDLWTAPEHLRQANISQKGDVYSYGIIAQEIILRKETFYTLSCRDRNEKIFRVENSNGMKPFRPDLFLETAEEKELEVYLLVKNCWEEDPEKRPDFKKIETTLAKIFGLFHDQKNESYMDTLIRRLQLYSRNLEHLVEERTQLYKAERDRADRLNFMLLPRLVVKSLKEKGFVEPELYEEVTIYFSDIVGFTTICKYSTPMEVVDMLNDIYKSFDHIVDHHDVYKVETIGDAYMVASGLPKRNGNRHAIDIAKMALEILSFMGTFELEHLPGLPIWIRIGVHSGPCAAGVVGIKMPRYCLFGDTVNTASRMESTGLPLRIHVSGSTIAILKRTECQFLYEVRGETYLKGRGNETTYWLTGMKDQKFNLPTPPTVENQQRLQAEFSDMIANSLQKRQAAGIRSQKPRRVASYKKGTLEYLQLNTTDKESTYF

Molecule | half life of each stereoisomer (A/B interconversion) [1] | half life of each stereoisomer (A/B interconversion) ([1]; listed as human Ugn) | cyclic GMP synthesis in T84 cells, potency against huUgnA [2]
CC(C)C[C@H](NC(=O)[C@@H]1CSSC[C@@H]2NC(=O)[C@H](CC(C)C)NC(=O)[C@H](CCC(=O)O)NC(=O)[C@@H](NC(=O)[C@H](CC(=O)O)NC(=O)[C@H](CC(=O)O)NC(=O)[C@@H](N)CC(N)=O)CSSC[C@H](NC(=O)[C@H](C)NC(=O)[C@H](C(C)C)NC(=O)[C@H](CC(N)=O)NC(=O)[C@H](C(C)C)NC2=O)C(=O)N[C@@H]([C@@H](C)O)C(=O)NCC(=O)N1)C(=O)O [huUgn, Asn Asp Asp Cys Glu Leu Cys Val Asn Val Ala Cys Thr Gly Cys Leu] | approximately 2 days | about 2 days | –
B1 | – | – | > 100 fold less potent than huUgnA
